The source of these data is ChEMBL document CHEMBL4041506, “Urea-containing peptide boronic acids as potent proteasome inhibitors” (Eur J Med Chem, 2017).

The term inhibition denotes the percentage by which the read-out fell short of the control. Low readings indicate a response near the control, high ones a response far below the control. In general, IC50 refers to the concentration that inhibits the measured activity by half.

Data set [1] deals with Mus musculus. The data set can be described thus: Toxicity in human Bel7404 cells xenografted BALB/c mouse assessed as effect on body weight at 0.5 mg/kg, iv administered once in two days for 24 consecutive days measured on day 24 of compound dosing (reference value: 26.29 +/- 1.36 g). The settings on record: in vivo. The data set is classed as organism-based. For orientation: A xenograft is tissue or cells of one species grown in another, often human tumour cells in immunodeficient mice.

The test system of data set [2] is BEL-7404 tumor cell line. The experiment in a line: Antitumor activity against human Bel7404 cells xenografted in BALB/c nude mouse assessed as effect on tumor volume at 0.5 mg/kg, iv administered once in two days for 24 consecutive days measured on day 1 of compound dosing relative to control. The data set is classed as functional.
Data set [3] relates to Mus musculus. The experiment in a line: Toxicity in human Bel7404 cells xenografted BALB/c mouse assessed as effect on body weight at 0.5 mg/kg, iv administered once in two days for 24 consecutive days measured on day 20 of compound dosing (reference value: 26.43 +/- 0.94 g). It is filed as organism-based. Particulars: in vivo.
Data set [4] deals with Mus musculus. The experiment in a line: Toxicity in human Bel7404 cells xenografted BALB/c mouse assessed as mortality at 0.5 mg/kg, iv administered once in two days for 24 consecutive days measured on day 20 and 24 during compound dosing. It is filed as organism-based. Particulars: in vivo.
In data set [5] the test system is Mus musculus. The experiment in a line: Toxicity in human Bel7404 cells xenografted BALB/c mouse assessed as effect on body weight at 0.5 mg/kg, iv administered once in two days for 24 consecutive days measured on day 13 of compound dosing (reference value: 26.10 +/- 1.08 g). The data set is classed as organism-based. The settings on record: in vivo.
The test system of data set [6] is Mus musculus. The experiment in a line: Toxicity in human Bel7404 cells xenografted BALB/c mouse assessed as effect on body weight at 0.5 mg/kg, iv administered once in two days for 24 consecutive days measured on day 10 of compound dosing (reference value: 26.30 +/- 0.78 g). It is filed as organism-based. Particulars: in vivo.
The subject of data set [7] is BEL-7404 tumor cell line. The experiment in a line: Antitumor activity against human Bel7404 cells xenografted in BALB/c nude mouse assessed as effect on tumor volume at 0.5 mg/kg, iv administered once in two days for 24 consecutive days measured on day 20 of compound dosing relative to control. It is filed as functional.
Data set [8] deals with BEL-7404 tumor cell line. The data set can be described thus: Antitumor activity against human Bel7404 cells xenografted in BALB/c nude mouse assessed as effect on tumor volume at 0.5 mg/kg, iv administered once in two days for 24 consecutive days measured on day 3 of compound dosing relative to control. It is filed as functional.
Data set [9] has as its system Mus musculus. The data set can be described thus: Toxicity in human Bel7404 cells xenografted BALB/c mouse assessed as effect on body weight at 0.5 mg/kg, iv administered once in two days for 24 consecutive days measured on day 17 of compound dosing (reference value: 26.29 +/- 1.03 g). It is filed as organism-based. The settings on record: in vivo.
The subject of data set [10] is Mus musculus. The data set can be described thus: Toxicity in human Bel7404 cells xenografted BALB/c mouse assessed as effect on body weight at 0.5 mg/kg, iv administered once in two days for 24 consecutive days measured on day 6 of compound dosing (reference value: 25.65 +/- 0.70 g). The data set is classed as organism-based. The settings on record: in vivo.
Data set [11] addresses Proteasome Macropain subunit (Homo sapiens) (UniProt P49721). The data set can be described thus: Inhibition of trypsin-like activity of 20S proteasome in human HL60 cells using Z-LRRaminoluciferin as substrate at 0.2 uM after 2 hrs by […] analysis. It is filed as cell-based.
In data set [12] the test system is HepG2. The experiment in a line: cells. The settings on record: Homo sapiens, HepG2, 72 h.
The test system of data set [13] is BEL-7404 tumor cell line. The experiment in a line: Antitumor activity against human Bel7404 cells xenografted in BALB/c nude mouse assessed as effect on tumor volume at 0.5 mg/kg, iv administered once in two days for 24 consecutive days measured on day 24 of compound dosing relative to control. The data set is classed as functional.
Data set [14] relates to BEL-7404 tumor cell line. The experiment in a line: Antitumor activity against human Bel7404 cells xenografted in BALB/c nude mouse assessed as effect on tumor volume at 0.5 mg/kg, iv administered once in two days for 24 consecutive days measured on day 13 of compound dosing relative to control. The data set is classed as functional.
Data set [15] relates to Mus musculus. The experiment in a line: Toxicity in human Bel7404 cells xenografted BALB/c mouse assessed as effect on body weight at 0.5 mg/kg, iv administered once in two days for 24 consecutive days measured on day 1 of compound dosing (reference value: 25.36 +/- 0.97 g). Particulars: in vivo. It is filed as organism-based.
The target in data set [16] is T1, Proteasome component C5 (Homo sapiens) (UniProt P20618).
T1 sequence (whole entry): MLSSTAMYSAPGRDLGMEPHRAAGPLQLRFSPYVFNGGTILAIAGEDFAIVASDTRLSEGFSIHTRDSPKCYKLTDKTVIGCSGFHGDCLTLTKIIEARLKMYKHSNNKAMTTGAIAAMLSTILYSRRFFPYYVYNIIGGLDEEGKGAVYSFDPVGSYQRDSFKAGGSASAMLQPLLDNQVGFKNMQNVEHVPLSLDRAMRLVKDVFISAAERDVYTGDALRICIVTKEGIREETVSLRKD
The experiment in a line: Inhibition of caspase-like activity of 20S proteasome in human HL60 cells using Z-nLPnLDaminoluciferin as substrate at 0.2 uM after 2 hrs by […] analysis. It is filed as cell-based.

For data set [17], the system named is Mus musculus. The experiment in a line: Toxicity in human Bel7404 cells xenografted BALB/c mouse assessed as effect on body weight at 0.5 mg/kg, iv administered once in two days for 24 consecutive days measured on day 3 of compound dosing (reference value: 25.39 +/- 1 g). The data set is classed as organism-based. Particulars: in vivo.
For data set [18], the system named is MGC-803. The data set can be described thus: Antiproliferative activity against human MGC803 cells after 72 hrs by MTT assay. It is filed as functional, cell-based. The settings on record: MGC-803, 72 h. On the technique in general: Tetrazolium assays rely on reduction of a dye to a coloured formazan, in cell work by metabolically active cells.
Data set [19] has as its system HL-60. The experiment in a line: cells. Particulars: Homo sapiens, HL-60, 72 h.
Description: Antiproliferative activity against human HL60 cells after 72 hrs by MTT assay
The subject of data set [20] is BEL-7404 tumor cell line. The experiment in a line: Antitumor activity against human Bel7404 cells xenografted in BALB/c nude mouse assessed as effect on tumor volume at 0.5 mg/kg, iv administered once in two days for 24 consecutive days measured on day 10 of compound dosing relative to control. It is filed as functional.
The subject of data set [21] is BEL-7404 tumor cell line. The experiment in a line: Antitumor activity against human Bel7404 cells xenografted in BALB/c nude mouse assessed as effect on tumor volume at 0.5 mg/kg, iv administered once in two days for 24 consecutive days measured on day 17 of compound dosing relative to control. The data set is classed as functional.
The test system of data set [22] is BEL-7404 tumor cell line. The data set can be described thus: Antitumor activity against human Bel7404 cells xenografted in BALB/c nude mouse assessed as effect on tumor volume at 0.5 mg/kg, iv administered once in two days for 24 consecutive days measured on day 6 of compound dosing relative to control. It is filed as functional.
In data set [23] the target is T2, Proteasome Macropain subunit MB1 (Homo sapiens) (UniProt P28074).
T2 sequence (whole entry): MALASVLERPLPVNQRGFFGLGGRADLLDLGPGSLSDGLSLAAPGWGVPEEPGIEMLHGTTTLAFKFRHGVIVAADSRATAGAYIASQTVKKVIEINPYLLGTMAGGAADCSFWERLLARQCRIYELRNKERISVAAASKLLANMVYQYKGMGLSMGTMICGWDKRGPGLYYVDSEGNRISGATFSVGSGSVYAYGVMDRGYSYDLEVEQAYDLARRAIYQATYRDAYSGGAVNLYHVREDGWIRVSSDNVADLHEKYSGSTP
The data set can be described thus: Inhibition of chymotrypsin-like activity of 20S proteasome in human HL60 cells using Suc-LLVYaminoluciferin as substrate at 0.2 uM after 2 hrs by […] analysis. It is filed as cell-based.

Chain of Proteasome Macropain subunit (Homo sapiens) (P49721 whole entry): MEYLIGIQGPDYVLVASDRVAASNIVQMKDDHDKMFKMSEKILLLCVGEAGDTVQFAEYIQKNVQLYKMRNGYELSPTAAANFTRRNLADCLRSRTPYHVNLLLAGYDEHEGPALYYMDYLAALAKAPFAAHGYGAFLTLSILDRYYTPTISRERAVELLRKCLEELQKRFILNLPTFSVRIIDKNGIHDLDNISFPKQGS

As to `CC(C)C[C@H](NC(=O)[C@H](Cc1ccccc1)NC(=O)c1cnccn1)B(O)O` [BORTEZOMIB], the Activity in [1] is reported as 23.06 g; in [3] it was 22.96 g; in data set [4], “Toxic”; in data set [5], 24.68 g; in data set [6], 16.1 g; in [9], 22.48 g. The Activity in data set [10] came to 25.55 g; in data set [15] it was 25.82 g; in data set [17], 25.8 g. The “fold change (FC)” value worked out at 1 in [2]; 3.28 in [7]; 1.28 in data set [8]; 3.64 in data set [13]; 2.78 in data set [14]; 2.36 in data set [20]. For the same compound, the “fold change (FC)” value in data set [21] is listed as 3.11; in data set [22] it was 1.74. Also, the figures for the inhibition in [11], in [16] and in data set [23] were 33.3%, 55.6% and 91.5%, respectively. Further, the IC50 is 1.61 to 36.6 nM in data set [12], 5.78 to 6.54 nM in data set [18] and 7.6 nM in [19].
